Literature values, collected in patent US12194068B2, “Dietary supplement composition for treating and managing acne” (CODEX LABS CORPORATION, priority 2023, dated 2025).

Tested on: C. acnes
Conditions: compared with benzoyl peroxide and erythromycin

Oc1ccc(C=Cc2cc(O)cc(O)c2)cc1 [resveratrol]
inhibition of C. acnes proliferation: on par with benzoyl peroxide and erythromycin
